Measured values published in ChEMBL document CHEMBL3871267, “Design and synthesis of 1,2,3-triazole-containing N-acyl zanamivir analogs as potent neuraminidase inhibitors” (Eur J Med Chem, 2016).
pIC50: −log10 of the molar value.

How the values were obtained:
[1] = biological target: Neuraminidase (Influenza A virus (strain A/Wilson-Smith/1933 H1N1) (Influenza A virus(strain A/WS/1933 H1N1)), UniProt P03470); assay: Competitive inhibition of MDCK infected Influenza A virus A/WSN/33(H1N1) neuraminidase using MU-NANA as substrate preincubated for 30 mins followed by substrate addition measured after 1 hr by spectrofluorometric method; assay type: cell-based, Influenza A virus (A/WSN/1933(H1N1))
[2] = Competitive inhibition of MDCK infected Influenza A virus A/Taiwan/3446/2002(H3N2) neuraminidase using MU-NANA as substrate preincubated for 30 mins followed by substrate addition measured after 1 hr by spectrofluorometric method
[3] = biological target: Neuraminidase (Influenza A virus (strain A/Wilson-Smith/1933 H1N1) (Influenza A virus(strain A/WS/1933 H1N1)), UniProt P03470); assay: Inhibition of MDCK infected Influenza A virus A/WSN/33(H1N1) neuraminidase using MU-NANA as substrate preincubated for 30 mins followed by substrate addition measured after 1 hr by spectrofluorometric method; assay type: cell-based, Influenza A virus (A/WSN/1933(H1N1))
[4] = Inhibition of MDCK infected Influenza A virus A/Taiwan/3446/2002(H3N2) neuraminidase using MU-NANA as substrate preincubated for 30 mins followed by substrate addition measured after 1 hr by spectrofluorometric method; assay type: cell-based

Sequence of Neuraminidase (Influenza A virus (strain A/Wilson-Smith/1933 H1N1) (Influenza A virus(strain A/WS/1933 H1N1)), UniProt P03470) (P03470 whole entry): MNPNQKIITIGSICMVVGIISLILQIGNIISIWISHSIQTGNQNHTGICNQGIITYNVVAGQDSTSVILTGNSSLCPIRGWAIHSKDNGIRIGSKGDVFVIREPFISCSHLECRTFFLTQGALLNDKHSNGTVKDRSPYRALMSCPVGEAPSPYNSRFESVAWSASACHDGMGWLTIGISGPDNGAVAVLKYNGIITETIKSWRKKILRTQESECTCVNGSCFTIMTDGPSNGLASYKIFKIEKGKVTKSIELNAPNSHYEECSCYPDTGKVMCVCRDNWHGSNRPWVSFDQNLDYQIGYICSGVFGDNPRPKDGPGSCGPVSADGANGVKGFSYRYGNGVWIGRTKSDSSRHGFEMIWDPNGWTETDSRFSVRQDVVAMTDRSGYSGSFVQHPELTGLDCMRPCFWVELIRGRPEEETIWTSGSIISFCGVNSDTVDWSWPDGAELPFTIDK

Row | SMILES | pIC50 [1] | pIC50 [2] | pIC50 [3] | pIC50 [4]
1 | CC(=O)N[C@H]1C([C@H](O)[C@H](O)CO)OC(C(=O)O)=C[C@@H]1NC(=N)NC(=O)CCn1cc(-c2ccccc2)nn1 (stereo partly drawn) | 6.84 | 6.87 |  | 
2 | CC(=O)N[C@H]1C([C@H](O)[C@H](O)CO)OC(C(=O)O)=C[C@@H]1NC(=N)NC(=O)CCCCn1cc(-c2ccccc2)nn1 (stereo partly drawn) | 6.77 | 6.96 |  | 
3 | COc1ccc2cc(-c3cn(CC(=O)NC(=N)N[C@H]4C=C(C(=O)O)O[C@@H]([C@H](O)[C@H](O)CO)[C@@H]4NC(C)=O)nn3)ccc2c1 |  |  | 7.51 | 7.55
4 | CC(=O)N[C@H]1C([C@H](O)[C@H](O)CO)OC(C(=O)O)=C[C@@H]1NC(=N)NC(=O)Cn1cc(-c2ccccc2)nn1 (stereo partly drawn) | 8.00 | 8.10 |  | 
5 | CC(=O)N[C@H]1[C@H]([C@H](O)[C@H](O)CO)OC(C(=O)O)=C[C@@H]1NC(=N)NC(=O)Cn1cc(-c2ccccc2N)nn1 |  |  | 7.92 | 7.89
6 | CC(=O)N[C@H]1[C@H]([C@H](O)[C@H](O)CO)OC(C(=O)O)=C[C@@H]1NC(=N)NC(=O)Cn1cc(-c2ccc(Cl)cc2)nn1 |  |  | 7.82 | 7.85
7 | COc1ccccc1-c1cn(CC(=O)NC(=N)N[C@H]2C=C(C(=O)O)O[C@@H]([C@H](O)[C@H](O)CO)[C@@H]2NC(C)=O)nn1 |  |  | 8.10 | 8.00
8 | CC(=O)N[C@H]1C([C@H](O)[C@H](O)CO)OC(C(=O)O)=C[C@@H]1NC(=N)NC(=O)CCCn1cc(-c2ccccc2)nn1 (stereo partly drawn) | 6.62 | 6.64 |  | 
9 | CC(=O)N[C@H]1[C@H]([C@H](O)[C@H](O)CO)OC(C(=O)O)=C[C@@H]1NC(=N)NC(=O)Cn1cc(-c2ccc(N)cc2)nn1 |  |  | 7.92 | 7.89
10 | CCOC(=O)c1cccc(-c2cn(CC(=O)NC(=N)N[C@H]3C=C(C(=O)O)O[C@@H]([C@H](O)[C@H](O)CO)[C@@H]3NC(C)=O)nn2)c1 |  |  | 7.89 | 7.72
11 | CC(=O)N[C@H]1[C@H]([C@H](O)[C@H](O)CO)OC(C(=O)O)=C[C@@H]1NC(=N)NC(=O)Cn1cc(-c2ccc(F)cc2)nn1 |  |  | 7.54 | 7.57
12 | CC(=O)N[C@H]1[C@H]([C@H](O)[C@H](O)CO)OC(C(=O)O)=C[C@@H]1NC(=N)NC(=O)CSc1ccc2ccccc2c1 |  |  | 7.70 | 7.60
13 | CC(=O)N[C@H]1[C@H]([C@H](O)[C@H](O)CO)OC(C(=O)O)=C[C@@H]1NC(=N)NC(=O)Cn1cc(C2=CCCCC2)nn1 |  |  | 7.82 | 7.77
14 | CC(=O)N[C@H]1[C@H]([C@H](O)[C@H](O)CO)OC(C(=O)O)=C[C@@H]1NC(=N)NC(=O)Cn1cc(-c2cccc(F)c2)nn1 |  |  | 7.85 | 7.77
15 | CC(=O)N[C@H]1[C@H]([C@H](O)[C@H](O)CO)OC(C(=O)O)=C[C@@H]1NC(=N)NC(=O)Cn1cc(-c2ccc(C)cc2)nn1 |  |  | 7.85 | 7.77
16 | COc1ccc(-c2cn(CC(=O)NC(=N)N[C@H]3C=C(C(=O)O)O[C@@H]([C@H](O)[C@H](O)CO)[C@@H]3NC(C)=O)nn2)cc1 |  |  | 7.92 | 7.77
17 | CC(=O)N[C@H]1[C@H]([C@H](O)[C@H](O)CO)OC(C(=O)O)=C[C@@H]1NC(=N)NC(=O)Cn1cc(C2CCCCC2)nn1 |  |  | 8.64 | 8.54
18 | CC(=O)N[C@H]1[C@H]([C@H](O)[C@H](O)CO)OC(C(=O)O)=C[C@@H]1NC(=N)NC(=O)Cn1cc(-c2cccc(N)c2)nn1 |  |  | 8.00 | 7.96
19 | CC(=O)N[C@H]1[C@H]([C@H](O)[C@H](O)CO)OC(C(=O)O)=C[C@@H]1NC(=N)NC(=O)Cn1cc(-c2cccc(Cl)c2)nn1 |  |  | 8.05 | 8.10
